In patent publication US7612064B2, “Sulfopyrroles” (Takeda Pharmaceutical Company Limited, priority 2003, dated 2009):

Experiments:
HeLa = experiment: MTS proliferation assay; type: cell-based, human; settings: 72 h
Summary of the method: (§1)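 Cells were exposed for 72 h under culture conditions to test compounds at final concentrations of 10, 3, 1 and 0.3 μM, added in complete medium with at most 5% DMSO. MTS reagent was then added for a further 3 h, and absorbance was read at 492 nm.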

Jurkat = experiment: MTS proliferation assay; type: cell-based, human; settings: 72 h
Summary of the method: as §1

MRC5 = experiment: MTS proliferation assay; type: cell-based; settings: MRC5, 72 h
Summary of the method: as §1

[1] = Hoechst 33342 nuclear staining; type: cell-based; settings: for Hoechst 33342 nuclear staining score, HeLa: HeLa cells; for Hoechst 33342 nuclear staining score, Jurkat: Jurkat cells; for Hoechst 33342 nuclear staining score, H460: H460 cells; for Hoechst 33342 nuclear staining score, Jily: Jily cells; for Hoechst 33342 nuclear staining score, MRC5: MRC5 cells; as to Hoechst 33342 nuclear staining score, PBLs: key: 0: no activity; 1: weak activity comprising less than 50% of the cells; 2: strong activity comprising more than 50% of the cells;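 as to all read-outs here: apoptotic nuclei scored 0 none 1 weak under 50% of cells 2 strong over 50% of cells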
Summary of the method: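 Cells were plated in 96 well tissue culture plates in 80 μl complete medium, with 3-5*10^3 cells per well for adherent lines and 8-10*10^3 for suspension lines. Adherent cells spread for 24 h before treatment, while suspension cells were treated right after seeding. Compounds were added in 20 μl complete medium containing max 5% DMSO.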

[2] = conc 0.1 (final concentrations in μM), 24 h or 48 h incubation
[3] = conc 0.3 (final concentrations in μM), 24 h or 48 h incubation
[4] = conc 1 (final concentrations in μM), 24 h or 48 h incubation
[5] = conc 3 (final concentrations in μM), 24 h or 48 h incubation

Structure (SMILES)	IC50 (HeLa) [nM]	IC50 (Jurkat) [nM]	IC50 (MRC5) [nM]	Hoechst 33342 nuclear staining score, HeLa [1, 2]	Hoechst 33342 nuclear staining score, HeLa [1, 3]	Hoechst 33342 nuclear staining score, HeLa [1, 4]	Hoechst 33342 nuclear staining score, HeLa [1, 5]	Hoechst 33342 nuclear staining score, Jurkat [1, 2]	Hoechst 33342 nuclear staining score, Jurkat [1, 3]	Hoechst 33342 nuclear staining score, Jurkat [1, 4]	Hoechst 33342 nuclear staining score, Jurkat [1, 5]	Hoechst 33342 nuclear staining score, H460 ([1]; conc 0.1)	Hoechst 33342 nuclear staining score, H460 ([1]; conc 0.3)	Hoechst 33342 nuclear staining score, H460 ([1]; conc 1)	Hoechst 33342 nuclear staining score, H460 ([1]; conc 3)	Hoechst 33342 nuclear staining score, HeLa ([1]; conc 0.1)	Hoechst 33342 nuclear staining score, HeLa ([1]; conc 0.3)	Hoechst 33342 nuclear staining score, HeLa ([1]; conc 1)	Hoechst 33342 nuclear staining score, HeLa ([1]; conc 3)	Hoechst 33342 nuclear staining score, Jily ([1]; conc 0.1)	further results
Cc1ccc(S(=O)(=O)n2cc(CNCCCN3CCCC3)cc2-c2ccc3c(c2)OCO3)cc1 [Example 22]	> 1000	> 1000	> 1000	0	0	0	0	0	0	0	0	–	–	–	–	–	–	–	–	–	–
Cc1ccc(S(=O)(=O)n2cc(CNCCN3CCCCC3)cc2-c2ccc3c(c2)OCO3)cc1 [Example 18]	> 1000	> 1000	> 1000	0	0	0	0	0	0	0	0	–	–	–	–	–	–	–	–	–	–
NC(=O)c1cncc(-c2cc(-c3ccc4c(c3)OCO4)n(S(=O)(=O)c3cccc(Cl)c3)c2)c1 [Example 75]	> 1000	> 1000	> 1000	–	–	–	–	–	–	–	–	0	0	0	0	0	0	0	0	0	Hoechst 33342 nuclear staining score, Jily ([1]; conc 0.3): 0; Hoechst 33342 nuclear staining score, Jily ([1]; conc 1): 0; Hoechst 33342 nuclear staining score, Jily ([1]; conc 3): 0; Hoechst 33342 nuclear staining score, Jurkat ([1]; conc 0.1): 0; Hoechst 33342 nuclear staining score, Jurkat ([1]; conc 0.3): 0; Hoechst 33342 nuclear staining score, Jurkat ([1]; conc 1): 0; Hoechst 33342 nuclear staining score, Jurkat ([1]; conc 3): 0; Hoechst 33342 nuclear staining score, MRC5 ([1]; conc 0.1): 0; Hoechst 33342 nuclear staining score, MRC5 ([1]; conc 0.3): 0; Hoechst 33342 nuclear staining score, MRC5 ([1]; conc 1): 0; Hoechst 33342 nuclear staining score, MRC5 ([1]; conc 3): 0; Hoechst 33342 nuclear staining score, PBLs ([1]; conc 0.1): 0; Hoechst 33342 nuclear staining score, PBLs ([1]; conc 0.3): 0; Hoechst 33342 nuclear staining score, PBLs ([1]; conc 1): 0; Hoechst 33342 nuclear staining score, PBLs ([1]; conc 3): 0
COc1cc(-c2cc(CNc3ccc(S(N)(=O)=O)cc3)cn2S(=O)(=O)c2ccc(C)cc2)cc(OC)c1OC [Example 70]	> 1000	< 1000	> 1000	–	–	–	–	–	–	–	–	0	0	0	2 (strong activity comprising more than 50% of the cells)	0	0	0	0	0	Hoechst 33342 nuclear staining score, Jily ([1]; conc 0.3): 0; Hoechst 33342 nuclear staining score, Jily ([1]; conc 1): 0; Hoechst 33342 nuclear staining score, Jily ([1]; conc 3): 2 (strong activity comprising more than 50% of the cells); Hoechst 33342 nuclear staining score, Jurkat ([1]; conc 0.1): 0; Hoechst 33342 nuclear staining score, Jurkat ([1]; conc 0.3): 0; Hoechst 33342 nuclear staining score, Jurkat ([1]; conc 1): 2 (strong activity comprising more than 50% of the cells); Hoechst 33342 nuclear staining score, Jurkat ([1]; conc 3): 2 (strong activity comprising more than 50% of the cells); Hoechst 33342 nuclear staining score, MRC5 ([1]; conc 0.1): 0; Hoechst 33342 nuclear staining score, MRC5 ([1]; conc 0.3): 0; Hoechst 33342 nuclear staining score, MRC5 ([1]; conc 1): 0; Hoechst 33342 nuclear staining score, MRC5 ([1]; conc 3): 2 (strong activity comprising more than 50% of the cells); Hoechst 33342 nuclear staining score, PBLs ([1]; conc 0.1): 0; Hoechst 33342 nuclear staining score, PBLs ([1]; conc 0.3): 0; Hoechst 33342 nuclear staining score, PBLs ([1]; conc 1): 0; Hoechst 33342 nuclear staining score, PBLs ([1]; conc 3): 0
Cc1ccc(S(=O)(=O)n2cc(CN(C)CCN(C)C)cc2-c2ccc3c(c2)OCO3)cc1 [Example 31]	> 1000	> 1000	> 1000	0	0	0	0	0	0	0	0	–	–	–	–	–	–	–	–	–	–
CCN(CC)CCNCc1cc(-c2ccc3c(c2)OCO3)n(S(=O)(=O)c2ccc(C)cc2)c1 [Example 20]	> 1000	> 1000	> 1000	0	0	0	0	0	0	0	0	–	–	–	–	–	–	–	–	–	–
Cc1ccc(S(=O)(=O)n2cc(CNCCN3CCCC3)cc2-c2ccc3c(c2)OCO3)cc1 [Example 17]	> 1000	> 1000	> 1000	0	0	0	0	0	0	0	0	–	–	–	–	–	–	–	–	–	–
CCN(CC)CCCNCc1cc(-c2ccc3c(c2)OCO3)n(S(=O)(=O)c2ccc(C)cc2)c1 [Example 34]	> 1000	> 1000	> 1000	0	0	0	0	0	0	0	0	–	–	–	–	–	–	–	–	–	–
COc1cc(-c2cc(CNc3ccc(N4CCOCC4)cc3)cn2S(=O)(=O)c2ccc(C)cc2)cc(OC)c1OC [Example 71]	< 1000	< 1000	< 1000	–	–	–	–	–	–	–	–	0	0	2 (strong activity comprising more than 50% of the cells)	2 (strong activity comprising more than 50% of the cells)	0	0	2 (strong activity comprising more than 50% of the cells)	2 (strong activity comprising more than 50% of the cells)	0	Hoechst 33342 nuclear staining score, Jily ([1]; conc 0.3): 0; Hoechst 33342 nuclear staining score, Jily ([1]; conc 1): 2 (strong activity comprising more than 50% of the cells); Hoechst 33342 nuclear staining score, Jily ([1]; conc 3): 2 (strong activity comprising more than 50% of the cells); Hoechst 33342 nuclear staining score, Jurkat ([1]; conc 0.1): 0; Hoechst 33342 nuclear staining score, Jurkat ([1]; conc 0.3): 2 (strong activity comprising more than 50% of the cells); Hoechst 33342 nuclear staining score, Jurkat ([1]; conc 1): 2 (strong activity comprising more than 50% of the cells); Hoechst 33342 nuclear staining score, Jurkat ([1]; conc 3): 2 (strong activity comprising more than 50% of the cells); Hoechst 33342 nuclear staining score, MRC5 ([1]; conc 0.1): 0; Hoechst 33342 nuclear staining score, MRC5 ([1]; conc 0.3): 0; Hoechst 33342 nuclear staining score, MRC5 ([1]; conc 1): 2 (strong activity comprising more than 50% of the cells); Hoechst 33342 nuclear staining score, MRC5 ([1]; conc 3): 2 (strong activity comprising more than 50% of the cells); Hoechst 33342 nuclear staining score, PBLs ([1]; conc 0.1): 0; Hoechst 33342 nuclear staining score, PBLs ([1]; conc 0.3): 0; Hoechst 33342 nuclear staining score, PBLs ([1]; conc 1): 0; Hoechst 33342 nuclear staining score, PBLs ([1]; conc 3): 0
COc1cc(-c2cc(-c3cncc(C(=O)O)c3)cn2S(=O)(=O)c2ccc(C)cc2)cc(OC)c1OC.N [Example 66]	> 1000	> 1000	> 1000	–	–	–	–	–	–	–	–	0	0	0	0	0	0	0	0	0	Hoechst 33342 nuclear staining score, Jily ([1]; conc 0.3): 0; Hoechst 33342 nuclear staining score, Jily ([1]; conc 1): 0; Hoechst 33342 nuclear staining score, Jily ([1]; conc 3): 0; Hoechst 33342 nuclear staining score, Jurkat ([1]; conc 0.1): 0; Hoechst 33342 nuclear staining score, Jurkat ([1]; conc 0.3): 0; Hoechst 33342 nuclear staining score, Jurkat ([1]; conc 1): 0; Hoechst 33342 nuclear staining score, Jurkat ([1]; conc 3): 0; Hoechst 33342 nuclear staining score, MRC5 ([1]; conc 0.1): 0; Hoechst 33342 nuclear staining score, MRC5 ([1]; conc 0.3): 0; Hoechst 33342 nuclear staining score, MRC5 ([1]; conc 1): 0; Hoechst 33342 nuclear staining score, MRC5 ([1]; conc 3): 0; Hoechst 33342 nuclear staining score, PBLs ([1]; conc 0.1): 0; Hoechst 33342 nuclear staining score, PBLs ([1]; conc 0.3): 0; Hoechst 33342 nuclear staining score, PBLs ([1]; conc 1): 0; Hoechst 33342 nuclear staining score, PBLs ([1]; conc 3): 0
